Paper PMC11087982, “In vitro and in vivo activities of a trithiolato-diRuthenium complex conjugated with sulfadoxine against the apicomplexan parasite Toxoplasma gondii” (International Journal for Parasitology: Drugs and Drug …, 2024)
Entries after “also recorded” stand apart in the source; their conditions may differ.

Legend:
[1] = test system: T. gondii Me49 tachyzoites; assay: Long-term treatment of infected HFF to test static or cidal effect; assay type: cell-based, Toxoplasma gondii; conditions: 0.5 μM
Experimental: On day 0, the HFF monolayers were infected with 5 × 10^5 T. gondii Me49 tachyzoites. At 4 h post infection (p.i.) the medium was removed, flasks were washed twice with sterile PBS and fresh medium containing either RU-SDX at 0.25 μM or 0.5 μM, or DMSO (0.05%) as a negative control, were added. Treatments were applied during 3 and 6 days and cultures were maintained in normal DMEM complete media and examined light microscopically daily. After drug removal, flasks were also monitored microscopically daily for one week.

Non-infected HFF = assay: TMRE uptake assay (mitochondrial membrane potential), non-infected HFF; assay type: cell-based, human; conditions: 0.5 μM, 3.5 h
Experimental: (§1) 5 × 10^5 HFF were seeded into T25 culture flasks in DMEM complete medium and maintained in culture for 72 h to reach ⁓80% confluency. HFF monolayers were left either non-infected or were infected with 2 × 10^5 T. gondii Me49 tachyzoites. After another 48 h, the medium was removed from infected and non-infected T25 flasks and was replaced either by medium containing 0.5 μM RU-SDX, or in the case of non-treated controls, medium containing 0.05% DMSO. As positive controls, the two mitochondrial uncouplers FCCP and CCCP were applied at a concentration of 80 and 50 μM, respectively. PYR was applied at 0.5 μM as a control drug not affecting the MMP, and RU-adenine, used as a conjugate shown earlier to impact on the mitochondrial ultrastructure in T. gondii ([Anghel et al., 2021]; [Desiatkina et al., 2022b]), was also tested at 0.5 μM ([Anghel et al., 2021]; [Desiatkina et al., 2022b]). […] Fluorescence was measured using a Hidex Sense microplate reader instrument ([…]) with the excitation wavelength 544/20 nm and emitted light collected at 590/20 nm. Value from wells belonging to the same experimental condition were summed and the mean TMRE uptake in each condition was calculated from three biological replicates.

[2] = test system: zebrafish (Danio rerio) embryo; assay: Zebrafish embryo acute toxicity test; assay type: in vivo; conditions: for Malformations (No. embryos with malformations / fertilized embryos) / Mortality (No. of dead embryos / fertilized embryos) / Unaffected embryos (No. / fertilized embryos): 96 h
Experimental: The zebrafish (Danio rerio) embryo acute toxicity test was carried out to assess the impact of RU-SDX on early embryo development as previously described ([Anghel et al., 2020]). RU-SDX was assessed at 0.2, 2 and 20 μM, while the bumped kinase inhibitor BKI-1748 (applied at 50 μM) was used as a positive control resulting in 100% mortality of zebrafish embryos ([Anghel et al., 2020]). For each test- and control condition, a 24 well plate containing 24 fertilized eggs (1 egg/well) was used. Negative control plates contained 1 ml of E3 medium/osmosis water, whereas eggs in solvent control plates were incubated in E3 medium containing 0.01% DMSO ([Anghel et al., 2020]). For each treatment, a survival rate was calculated that reflected the degree of either embryo death or malformations during the first 96 h of development in relation to eggs maintained without compound.

T. gondii-infected HFF = assay: TMRE uptake assay (mitochondrial membrane potential), T. gondii-infected HFF; assay type: cell-based, Toxoplasma gondii Me49 in human HFF; conditions: 0.5 μM, 3.5 h
Experimental: as §1

[3] = Formulation of the compound for oral gavage (precipitation); assay type: physicochemical; conditions: compared with 5 mg/kg in corn oil containing 10% DMSO; data not shown
Experimental: A preliminary in vivo study was conducted in outbred CD1 mice that were experimentally infected with TgShSp1 oocysts.

CC(C)(C)c1ccc(C[S-])cc1.CC(C)(C)c1ccc(C[S-])cc1.COc1ncnc(NS(=O)(=O)c2ccc(NC(=O)Cc3ccc([S-])cc3)cc2)c1OC.Cc1ccc(C(C)C)cc1.Cc1ccc(C(C)C)cc1.[Cl-].[Ru+2].[Ru+2] [RU-SDX]
parasiticidal or parasitostatic action in vitro ([1]; 3 and 6 days treatment): parasitostatic but not parasiticidal; also recorded: did not act parasiticidal
tachyzoite re-emergence after removal of the drug ([1]; 6 days of continuous treatment, then culture without compound): ≤ 4 days
TMRE fluorescence intensity / TMRE uptake (percentage of non-treated control = 100%) (Non-infected HFF): 140%
survival score (surviving embryos without malformations) ([2]; 0.2 μM): 95%
Malformations (No. embryos with malformations / fertilized embryos) ([2]; 0.2 μM): 0/20
Mortality (No. of dead embryos / fertilized embryos) ([2]; 0.2 μM): 1/20
Unaffected embryos (No. / fertilized embryos) ([2]; 0.2 μM): 19/20
survival score (surviving embryos without malformations) ([2]; 2 μM): 90%
Malformations (No. embryos with malformations / fertilized embryos) ([2]; 2 μM): 1/20
Mortality (No. of dead embryos / fertilized embryos) ([2]; 2 μM): 1/20
Unaffected embryos (No. / fertilized embryos) ([2]; 2 μM): 18/20
survival score (surviving embryos without malformations) ([2]; 20 μM): no surviving embryos
Malformations (No. embryos with malformations / fertilized embryos) ([2]; 20 μM): 0/20
Mortality (No. of dead embryos / fertilized embryos) ([2]; 20 μM): 20/20
Unaffected embryos (No. / fertilized embryos) ([2]; 20 μM): 0/20
time of peak of mortality of zebrafish embryos ([2]; 20 μM, h of embryogenesis): 72 h
TMRE fluorescence intensity / TMRE uptake (percentage of non-treated control = 100%) (T. gondii-infected HFF): 130%
behaviour at higher concentrations or in other vehicles (PBS ± DMSO, H2O ± DMSO, H2O + propane-1,2-diol) [3]: precipitation
